The results in this text go back to patent US20110178062A1, “INDOLE AND BENZOTHIOPHENE COMPOUNDS AS MODULATORS OF THE HISTAMINE H3 RECEPTOR” (priority 2007, published 2011).

This assay deals with T1, cloned human H3 receptors, stably expressed in SK-N-MC cells (Homo sapiens, UniProt Q9Y5N1).
T1 construct: expressed in transfected cells; host or cells: SK-N-MC cells
The experiment in a line: H3 Receptor Binding (Human). The protocol:
Binding of compounds to the cloned human H3 receptors, stably expressed in SK-N-MC cells, was performed as described by Barbier, A. J. et al. (Br. J. Pharmacol. 2004, 143(5), 649-661). Data for compounds tested in this assay are presented in Table 1 as an average of the results obtained.

[1] abbreviates: average of the results obtained.

T1 sequence (Q9Y5N1 whole entry): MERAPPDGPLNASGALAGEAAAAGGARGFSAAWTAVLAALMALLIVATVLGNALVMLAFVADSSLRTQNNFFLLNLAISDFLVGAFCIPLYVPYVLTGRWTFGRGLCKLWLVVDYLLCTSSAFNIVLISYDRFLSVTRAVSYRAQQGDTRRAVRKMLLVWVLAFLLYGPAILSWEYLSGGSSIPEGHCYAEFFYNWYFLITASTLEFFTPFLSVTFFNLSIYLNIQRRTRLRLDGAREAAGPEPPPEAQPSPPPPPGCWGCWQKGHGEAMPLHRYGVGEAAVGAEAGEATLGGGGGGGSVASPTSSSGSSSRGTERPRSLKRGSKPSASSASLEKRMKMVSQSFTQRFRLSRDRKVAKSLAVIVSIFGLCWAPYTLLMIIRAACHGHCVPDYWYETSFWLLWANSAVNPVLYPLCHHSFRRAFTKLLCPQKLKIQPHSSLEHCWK

`CC(C)N1CCN(C(=O)c2ccc3[nH]ccc3c2)CC1` [(1H-Indol-5-yl)-(4-isopropyl-piperazin-1-yl)-methanone]: the Ki (usually a measure of affinity in units of concentration, obtained from inhibition or displacement) (stated in text for the intermediate of Example 35, Step A) came out at 97 nM. This counts as double-digit nanomolar.

`Cn1cc(CN2CCOCC2)c2ccc(C(=O)N3CCN(C4CC4)CC3)cc21` [Example 2, (4-Cyclopropyl-piperazin-1-yl)-(1-methyl-3-morpholin-4-ylmethyl-1H-indol-6-yl)-methanone] came in with a Ki under setting [1] of 46 nM.

As for `O=C(c1ccc2c(CN3CCOCC3)c[nH]c2c1)N1CCCN(C2CC2)CC1` [Example 8, (4-Cyclopropyl-[1,4]diazepan-1-yl)-(3-morpholin-4-ylmethyl-1H-indol-6-yl)-methanone], under setting [1], the Ki was 1 nM.

Take `O=C(c1ccc2c(CN3CCOCC3)c[nH]c2c1)N1CCCN(C2CCC2)CC1` [Example 9, (4-Cyclobutyl-[1,4]diazepan-1-yl)-(3-morpholin-4-ylmethyl-1H-indol-6-yl)-methanone]: under setting [1], the affinity, expressed as Ki, was 1 nM.

In turn, `O=C(NCc1cccnc1)c1ccc2c(CN3CCOCC3)c[nH]c2c1` [Example 10, 3-Morpholin-4-ylmethyl-1H-indole-6-carboxylic acid (pyridin-3-ylmethyl)-amide] showed a Ki under setting [1] of 5010 nM.

The compound `O=C(NCc1ccncc1)c1ccc2c(CN3CCOCC3)c[nH]c2c1` [Example 11, 3-Morpholin-4-ylmethyl-1H-indole-6-carboxylic acid (pyridin-4-ylmethyl)-amide] gave a Ki under setting [1] of 228 nM.

Under setting [1], `Cc1cccnc1CNC(=O)c1ccc2c(CN3CCOCC3)c[nH]c2c1` [Example 12, 3-Morpholin-4-ylmethyl-1H-indole-6-carboxylic acid (3-methyl-pyridin-2-ylmethyl)-amide] displayed a Ki of 2000 nM.

`O=C(c1ccc2c(CN3CCOCC3)c[nH]c2c1)N1CCc2nc[nH]c2C1` [Example 13, (3-Morpholin-4-ylmethyl-1H-indol-6-yl)-(3,4,6,7-tetrahydro-imidazo[4,5-d]pyridin-5-yl)-methanone]: affinity under setting [1] was put at a Ki of 2000 nM.

Under setting [1], `O=C(c1ccc2c(CN3CCOCC3)c[nH]c2c1)N1CCC(N2CCCC2=O)CC1` [Example 14, 1-[1-(3-Morpholin-4-ylmethyl-1H-indole-6-carbonyl)-piperidin-4-yl]-pyrrolidin-2-one] registered a Ki of 609 nM.

`O=C(NCc1cccnc1)c1ccc2c(CN3CCCCC3)c[nH]c2c1` [Example 15, 3-Piperidin-1-ylmethyl-1H-indole-6-carboxylic acid (pyridin-3-ylmethyl)-amide] came in with a Ki under setting [1] of 117 nM.

In turn, `O=C(NCc1ccncc1)c1ccc2c(CN3CCCCC3)c[nH]c2c1` [Example 16, 3-Piperidin-1-ylmethyl-1H-indole-6-carboxylic acid (pyridin-4-ylmethyl)-amide] displayed an inhibitory constant (Ki) under setting [1] of 327 nM.

`Cc1cccnc1CNC(=O)c1ccc2c(CN3CCCCC3)c[nH]c2c1` [Example 17, 3-Piperidin-1-ylmethyl-1H-indole-6-carboxylic acid (3-methyl-pyridin-2-ylmethyl)-amide] had a Ki under setting [1] of 114 nM.

Under setting [1], `O=C(c1ccc2c(CN3CCCCC3)c[nH]c2c1)N1CCc2nc[nH]c2C1` [Example 18, (3-Piperidin-1-ylmethyl-1H-indol-6-yl)-(3,4,6,7-tetrahydro-imidazo[4,5-c]pyridin-5-yl)-methanone] returned a Ki of 5010 nM.

The compound `O=C(c1ccc2c(CN3CCCCC3)c[nH]c2c1)N1CCC(N2CCCC2=O)CC1` [Example 19, 1-[1-(3-Piperidin-1-ylmethyl-1H-indole-6-carbonyl)-piperidin-4-yl]-pyrrolidin-2-one] returned a Ki under setting [1] of 260 nM.

On to `CC(C)N1CCN(C(=O)c2cccc3c(CN4CCCCC4)c[nH]c23)CC1` [Example 22, (4-Isopropyl-piperazin-1-yl)-(3-piperidin-1-ylmethyl-1H-indol-7-yl)-methanone], for which the Ki under setting [1] amounted to 32 nM. This Ki is about 8.1-fold lower than that of the compound before.

`CC(C)N1CCN(C(=O)c2ccc3c(CN4CCCCC4)c[nH]c3c2)CC1` [Example 24, (4-Isopropyl-piperazin-1-yl)-(3-piperidin-1-ylmethyl-1H-indol-6-yl)-methanone] displayed an inhibitory constant (Ki) under setting [1] of 2 nM.

Under setting [1], `CC(C)N1CCN(C(=O)c2ccc3c(CN4CCOCC4)cn(S(C)(=O)=O)c3c2)CC1` [Example 26, (4-Isopropyl-piperazin-1-yl)-(1-methanesulfonyl-3-morpholin-4-ylmethyl-1H-indol-6-yl)-methanone] returned a Ki of 18 nM.

With `CC(C)N1CCN(Cc2c[nH]c3cc(C(=O)N4CCCCC4)ccc23)CC1` [Example 27, [3-(4-Isopropyl-piperazin-1-ylmethyl)-1H-indol-6-yl]-piperidin-1-yl-methanone], the Ki under setting [1] was found to be 28 nM.

Under setting [1], `O=C(c1ccc2c(CN3CCN(C4CC4)CC3)c[nH]c2c1)N1CCCCC1` [Example 28, [3-(4-Cyclopropyl-piperazin-1-ylmethyl)-1H-indol-6-yl]-piperidin-1-yl-methanone] came in with an inhibition constant Ki of 177 nM.

As to `CC(C)N1CCCN(Cc2c[nH]c3cc(C(=O)N4CCCCC4)ccc23)CC1` [Example 30, [3-(4-Isopropyl-[1,4]diazepan-1-ylmethyl)-1H-indol-6-yl]-piperidin-1-yl-methanone], the affinity under setting [1] corresponds to a Ki of 26 nM.

In turn, `O=C(c1ccc2c(CN3CCCN(C4CC4)CC3)c[nH]c2c1)N1CCCCC1` [Example 31, [3-(4-Cyclopropyl-[1,4]diazepan-1-ylmethyl)-1H-indol-6-yl]-piperidin-1-yl-methanone] yielded a Ki under setting [1] of 214 nM.

Take `CC(C)N1CCN(C(=O)c2ccc3[nH]cc(CN4CCCCC4)c3c2)CC1` [Example 32, (4-Isopropyl-piperazin-1-yl)-(3-piperidin-1-ylmethyl-1H-indol-5-yl)-methanone]: the affinity under setting [1], expressed as Ki, was 34 nM.

On to `O=C(c1ccc2[nH]cc(CN3CCCCC3)c2c1)N1CCN(C2CCC2)CC1` [Example 33, (4-Cyclobutyl-piperazin-1-yl)-(3-piperidin-1-ylmethyl-1H-indol-5-yl)-methanone], for which the affinity under setting [1] corresponds to a Ki of 13 nM.

As for `CC(C)N1CCN(C(=O)c2ccc3[nH]cc(CN4CCOCC4)c3c2)CC1` [Example 35, (4-Isopropyl-piperazin-1-yl)-(3-morpholin-4-ylmethyl-1H-indol-5-yl)-methanone], the affinity under setting [1], expressed as Ki, was 265 nM.

In turn, `O=C(c1cccc2c(CN3CCN(C4CCC4)CC3)c[nH]c12)N1CCCCC1` [Example 36, [3-(4-Cyclobutyl-piperazin-1-ylmethyl)-1H-indol-7-yl]-piperidin-1-yl-methanone] showed a Ki under setting [1] of 81 nM.

`O=C(c1cccc2[nH]cc(CN3CCN(C4CCC4)CC3)c12)N1CCCCC1` [Example 37, [3-(4-Cyclobutyl-piperazin-1-ylmethyl)-1H-indol-4-yl]-piperidin-1-yl-methanone] came in with a Ki under setting [1] of 318 nM.

Compound `O=C(c1ccc2[nH]cc(CN3CCN(C4CCC4)CC3)c2c1)N1CCCCC1` [Example 38, [3-(4-Cyclobutyl-piperazin-1-ylmethyl)-1H-indol-5-yl]-piperidin-1-yl-methanone] gave a Ki under setting [1] of 427 nM.

As for `CC(C)N1CCN(C(=O)c2cccc3[nH]cc(CN4CCOCC4)c23)CC1` [Example 39, (4-Isopropyl-piperazin-1-yl)-(3-morpholin-4-ylmethyl-1H-indol-4-yl)-methanone], under setting [1], the Ki is more than 10000 nM.

Take `O=C(c1ccc2[nH]cc(CN3CCOCC3)c2c1)N1CCN(C2CCC2)CC1` [Example 40, (4-Cyclobutyl-piperazin-1-yl)-(3-morpholin-4-ylmethyl-1H-indol-5-yl)-methanone]: under setting [1], the Ki is 33 nM. This lies in the double-digit nanomolar range.
